Results taken from US12144834B2, “Methods and compositions for treating gastrointestinal and inflammatory disorders” (Xbiome Inc., priority 2018, dated 2024).
Values after ≈ are worked out from the molar mass of the structure shown. Read-outs that look alike come from different tables or passages of the source.

Tests used:
BTH01 = test: Phenotypic antibiotic susceptibility (MIC), research cell bank; type: cell-based, Bacteroides thetaiotaomicron; details: for MIC: Bacteroides thetaiotaomicron, read-out: Determined MIC; for MIC Interpretation: against BTH01
RHO01 = test: Phenotypic antibiotic susceptibility (MIC, Etests), research cell bank; type: cell-based, Roseburia hominis; details: for MIC: Roseburia hominis, read-out: Determined MIC; for MIC Interpretation: against RHO01
EHA01 = test: as above; type: cell-based, Eubacterium hallii; details: for MIC: Anaerobutyricum hallii, read-out: Determined MIC; for MIC Interpretation: against EHA01

SMILES	MIC (BTH01; against BTH01, agar dilution) [µg/mL]	MIC Interpretation (BTH01)	MIC (RHO01; against RHO01, Etests) [µg/mL]	MIC Interpretation (RHO01)	MIC (EHA01; against EHA01, Etests) [µg/mL]	MIC Interpretation (EHA01)	MIC (BTH01) [µg/mL]	MIC (RHO01) [µg/mL]	MIC (EHA01) [µg/mL]
CO[C@@]1(NC(=O)C2SC(=C(C(N)=O)C(=O)O)S2)C(=O)N2C(C(=O)O)=C(CSc3nnnn3C)CS[C@@H]21 (some centres unmarked) [Cefotetan]	256 (≈ 445 µM)	R							
CCC[C@@H]1C[C@@H](C(=O)N[C@@H]([C@H]2O[C@H](SC)[C@H](O)[C@@H](O)[C@H]2O)[C@H](C)Cl)N(C)C1 [Clindamycin]	> 32	R	≤ 0.016	S	0.03 (≈ 0.0706 µM)	S			
CC1(C)S[C@@H]2[C@H](NC(=O)[C@H](N)c3ccccc3)C(=O)N2[C@H]1C(=O)O [Ampicillin]	32 (≈ 91.6 µM)	R	≤ 0.016	S	0.06 (≈ 0.172 µM)	S			
C[C@@H](O)[C@H]1C(=O)N2C(C(=O)O)=C(SCCN=CN)C[C@H]12 [Imipenem]	0.5 (≈ 1.67 µM)	S	0.12 (≈ 0.401 µM)	S	0.008 (≈ 0.0267 µM)	S			
COc1c(N2C[C@@H]3CCCN[C@@H]3C2)c(F)cc2c(=O)c(C(=O)O)cn(C3CC3)c12 [Moxifloxacin]	2 (≈ 4.98 µM)	S	32 (≈ 79.7 µM)	R	2 (≈ 4.98 µM)	S			
Cc1ncc([N+](=O)[O-])n1CCO [Metronidazole]	2 (≈ 11.7 µM)	S	0.03 (≈ 0.175 µM)	S	0.06 (≈ 0.351 µM)	S			
CN[C@H](CC(C)C)C(=O)N[C@H]1C(=O)N[C@@H](CC(N)=O)C(=O)N[C@H]2C(=O)N[C@H]3C(=O)N[C@H](C(=O)N[C@H](C(=O)O)c4cc(O)cc(O)c4-c4cc3ccc4O)[C@H](O)c3ccc(c(Cl)c3)Oc3cc2cc(c3O[C@@H]2O[C@H](CO)[C@@H](O)[C@H](O)[C@H]2O[C@H]2C[C@](C)(N)[C@H](O)[C@H](C)O2)Oc2ccc(cc2Cl)[C@H]1O [Vancomycin]							64 (≈ 44.2 µM)	0.25 (≈ 0.173 µM)	0.12 (≈ 0.0828 µM)
